Experimental findings from patent EP4813463A2, “TYK2 INHIBITORS AND COMPOSITIONS AND METHODS THEREOF” (Lynk Pharmaceuticals Co. Ltd., priority 2023, dated 2024) are described below.

The structures appear in SMILES notation. ≈ marks a conversion by molar mass, not a printed value. Read-outs that look alike come from different tables or passages of the source.

The target of data set [1] is T1, JAK1-JH2 domain (Homo sapiens, UniProt P23458).
T1 construct: JAK1-JH2 domain or TYK2-JH2 domain enzyme in assay buffer
T1 sequence (P23458 583-855 limits assumed): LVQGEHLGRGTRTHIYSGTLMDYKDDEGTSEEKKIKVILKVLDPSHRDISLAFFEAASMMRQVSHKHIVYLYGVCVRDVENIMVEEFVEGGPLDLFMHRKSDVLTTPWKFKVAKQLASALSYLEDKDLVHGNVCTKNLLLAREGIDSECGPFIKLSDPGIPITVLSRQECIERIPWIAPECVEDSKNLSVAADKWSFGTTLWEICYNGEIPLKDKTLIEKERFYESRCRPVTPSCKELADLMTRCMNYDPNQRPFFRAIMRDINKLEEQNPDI
The data set is described as follows: Binding activity test for JH2 domain of JAK1 (Tb-antibody/tracer FRET). As to conditions: JH2 domain enzyme; 60 min at 25°C, then 4°C overnight; read-out: JAK1 JH2 Binding IC50. Summed up: (§1)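 IC50 values (nM) come from TR-FRET readings taken after a 25°C incubation followed by overnight at 4°C. Each well held JH2 domain protein, Tb-antibody, tracer and test compound titrated in 11 threefold steps, with DMSO high and low controls.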

For data set [2], the system named is Ba/F3-FL-TYK2-P760L cells. Briefly: Anti-proliferative assay in engineered Ba/F3 cells (Cell-Titer Glo, 72 h). Type of data set: cell-based. As to conditions: 72 h compound treatment, concentration that causes 50% growth inhibition, read-out: Baf3-FL-T2P760L. The essentials:
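IC50 from luminescent ATP viability after 72 h compound exposure (37 °C, 5% CO2), % inhibition normalised to DMSO-treated cells minus medium blank. IL-3-free Ba/F3-FL-TYK2-P760L (Tel-JAK fusion) cells in 10% FBS RPMI-1640 received 9 three-fold doses, top 20 µM, 0.1% DMSO.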

Data set [3] is described as follows: Kinetic solubility. As to conditions: 100 mM pH 7.4 phosphate buffer, 1% DMSO, room temperature, read-out: Kinetics Solubility_PBS7.4. Type of data set: physicochemical. How it is done: Aliquots of 8 µL of reference and test compound stock solutions (10 mM/5 mM) are added into 792 µL of 100 mM pH 7.4 phosphate buffer. The final DMSO concentration is 1%. Sample tubes are shaken for 2 hours at 1000 rpm at room temperature. Samples are centrifuged at 12000 rpm for 10 min to precipitate un-dissolved particles. And transfer the supernatants to a new tube or plate. Add 5 µL of samples (no diluted, 10 times diluted, and 100 times diluted) and standard curve samples to 95 µL of ACN containing IS for LC-MS/MS analysis. Kinetic Solubilities Values of Exemplary Compounds

For data set [4], the target named is T2, TYK2-JH2 domain (Homo sapiens, UniProt P29597).
T2 construct: JAK1-JH2 domain or TYK2-JH2 domain enzyme in assay buffer
T2 sequence (P29597 589-875 limits assumed): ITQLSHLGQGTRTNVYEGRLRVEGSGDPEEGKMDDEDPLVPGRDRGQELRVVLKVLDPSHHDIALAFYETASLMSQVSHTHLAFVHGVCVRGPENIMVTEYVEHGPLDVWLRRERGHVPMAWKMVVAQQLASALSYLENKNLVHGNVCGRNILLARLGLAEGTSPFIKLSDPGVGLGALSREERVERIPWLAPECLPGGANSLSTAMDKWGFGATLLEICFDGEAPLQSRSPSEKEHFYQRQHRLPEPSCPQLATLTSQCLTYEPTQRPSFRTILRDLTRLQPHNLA
The data set is described as follows: Binding activity test for JH2 domain of TYK2 (Tb-antibody/tracer FRET). Particulars: for IC50: JH2 domain enzyme, 60 min at 25°C, then 4°C overnight, read-out: TYK2 JH2 Binding IC50; for JAK1/TYK2 selectivity: ratio of JAK1 JH2 to TYK2 JH2 binding IC50. Summed up: as §1

In data set [5] the test system is pSTAT1. Briefly: Phosphorylation inhibition of STAT in human whole blood (IFN-alpha stimulated, flow cytometry). Type of data set: cell-based. Particulars: T-cell, 20 min, IFN-alpha stimulation 20 mins, CD3 T cells, read-out: pSTAT1 inhibition in hWB (IC50). As to the method:
The inhibitory potential of test articles in human whole blood assay was evaluated by the method of flow cytometry.
IFN-alpha will activate JAK1 and TYK2 kinase in T cells by binding to IFN receptors, and then lead to phosphorylation of STAT1 and STAT2. The phosphorylated STAT1 enter nuclear and promote transcription and expression of IFN-gamma. To evaluate the efficacy of TYK2i in T cells, freshly collected human whole blood will be stimulated with certain unit of human IFN-alpha (Universal Type I IFN(1MU), R&D, 11200-2) for 20 mins in incubator. After stimulation, fix cells with Phosflow™ Fix Buffer I (BD, 557870), and then collect fixed cells by centrifugation (500 g, 8min). Wash cells once with pre-cooled PBS, and then permeabilize cells with cold Perm Buffer III buffer (BD, 558050) for 45 mins on ice. Collect cells by centrifugation (600 g, 8min) and washed twice with cold PBS. Stain cells with anti-human CD3(FITC Mouse Anti-Human CD3, BD, 555332) and anti-pSTAT1_Y701(Alexa Fluor 647 Mouse Anti-Stat1 (pY701), BD, 612597) antibodies. Detect pSTAT1 by flow cytometry (CytoFlex S) and analyze data with FlowJo and GraphPad Prism 8 software. IC50 values of test articles were determined using 4- parameter logistic equation.
Background: In flow cytometry, cells or beads pass a laser one at a time.

The nature of data set [6]: Microsomal metabolic stability assay. Particulars: human, liver microsomes, pH 7.4, 0.5 mg/mL microsomal protein, 1 µM test article, 2 mM NADPH; for microsomal CLint at 1 µM: read-out: Human LM Clint; for half-life at 1 µM: read-out: Human LM T1/2. Type of data set: in vitro ADME. How it is done: Microsomes were pre-incubated with test compound or control compounds for 5 min at 37°C in 100 mM potassium phosphate buffer, pH 7.4, 1.0 mM EDTA. The reaction was initiated by addition of 15 µL of the NADPH regenerating system to 30 µL of each incubation mixture per time point. The final incubation condition was composed of 0.5 mg/mL microsomal protein, 1 µM test article/positive control, 2 mM NADPH. The 0-minute samples were prepared by addition of a 30 µL aliquot of each incubation mixture to 135 µL quench reagent to precipitate proteins. And then a 15 µL aliquot of the NADPH regenerating system was added. At 5, 15, 30 and 45 minutes, the reaction will be stopped by the addition of cold acetonitrile solution containing internal standard. The samples taken at all time points were centrifuged at 5000×g for 15 minutes. 50 µL of supernatant are taken into 96-well assay plates pre-added with 50 µL ultrapure water, and then analyzed by LC/MS/MS.
Concentrations of test articles, control compounds in the samples were determined by using LC/MS/MS method. Plotting of the chromatograms and peak area integrations are carried out by Analyst (AB Sciex).
In the determination of the in vitro elimination constant (ke) of the control compounds, the analyte/internal standard peak area ratios will be converted to percentage remaining (%Remaining) with the following equation: %Remaining = (Peak area ratio of analyte to IS at each time point)/(Peak area ratio of analyte to IS at t = 0) × 100% [formula]
The CLint of microsomes was calculated using the formula: CLint (mic)=0.693/T1/2 /mg microsome protein per mL. The slope was measured by the natural logarithm of the percentage of the residual compound and time, T1/2 was calculated according to the following formula. T = (0.693)/(−slope) [formula]
For orientation: Liver microsomes are a subcellular fraction often used to study metabolism.

Setting [7] is: phosphate buffer, pH 7.4, aqueous buffer, kinetic from dmso stock.

In the case of `[2H]C([2H])([2H])NC(=O)c1cnc(NC(=O)C2CC2)cc1Nc1cnn2ccc(C(C)C(F)(F)F)c(OC)c12` (single isomer, unassigned) [Example 9A, (R*) -6-(cyclopropanecarboxamido)-4-((4-methoxy-5-(1,1,1-trifluoropropan-2-yl)pyrazolo[1,5-a]pyridin-3-yl)amino)-N-(methyl-d3)nicotinamide], the figures for the IC50 in data set [1], in data set [2] and in data set [4] were 39 nM, 2140 nM and 0.424 nM, respectively. Further, in data set [3], the solubility kinetic at 2 h was determined as 35.80 µM (≈ 17.2 µg/mL). In data set [4], the JAK1/TYK2 selectivity came to 91.9.

As to `[2H]C([2H])([2H])NC(=O)c1cnc(NC(=O)C2CC2)cc1Nc1nn(CC)c2ccc(C(O)C(F)(F)F)c(OC)c12` (single isomer, unassigned) [Example 71A, (S*)-6-(cyclopropanecarboxamido)-4-((1-ethyl-4-methoxy-5-(2,2,2-trifluoro-1-hydroxyethyl)-1H-indazol-3-yl)amino)-N-(methyl-d3)nicotinamide], the IC50 in data set [5] came out at 54.9 nM; in data set [1], 7.26 nM; in data set [2], 0.412 nM; in data set [4], 0.14 nM. Also, the JAK1/TYK2 selectivity in data set [4] was 51.84.

Turning to `[2H]C([2H])([2H])NC(=O)c1cnc(NC(=O)C2CC2)nc1Nc1cnn2ccc(Cl)c(OC)c12` [Example 4, 4-((5-Chloro-4-methoxypyrazolo[1,5-a]pyridin-3-yl)amino)-2-(cyclopropanecarboxamido)-N-(methyl-d3)pyrimidine-5-carboxamide], the IC50 is 312 nM in data set [5]; 15.3 nM in data set [1]; 38.9 nM in data set [2] (Mus musculus, BaF3, 72 h); 0.164 nM in data set [4]. Also, in data set [4], the JAK1/TYK2 selectivity came out at 93.5.

`[2H]C([2H])([2H])NC(=O)c1cnc(NC(=O)C2CC2)cc1Nc1cnn2ccc(C(C)C(F)(F)F)c(OC)c12` (stereo not shown) [Example 9, 6-(Cyclopropanecarboxamido)-4-((4-methoxy-5-(1,1,1-trifluoropropan-2-yl)pyrazolo[1,5-a]pyridin-3-yl)amino)-N-(methyl-d3)nicotinamide]: the figures for the IC50 in data set [1], in data set [2] and in data set [4] were 8.76 nM, 51.6 nM and 0.158 nM, respectively. In data set [3] (setting [7]), the solubility kinetic at 2 h was found to be 60 µM (≈ 28.8 µg/mL). The JAK1/TYK2 selectivity in data set [4] is listed as 55.4.

For `[2H]C([2H])([2H])NC(=O)c1cnc(NC(=O)C2CC2)cc1Nc1cnn2ccc(C#N)c(OC)c12` [Example 12, 4-((5-Cyano-4-methoxypyrazolo[1,5-a]pyridin-3-yl)amino)-6-(cyclopropanecarboxamido)-N-(methyl-d3)nicotinamide], the IC50 in data set [1] came out at 21.1 nM; in data set [2] (Mus musculus, BaF3, 72 h) it was 194 nM; in data set [4] it was 0.308 nM. The solubility kinetic at 2 h in data set [3] (setting [7]) stood at 15.1 µM (≈ 6.18 µg/mL). For the same compound, the JAK1/TYK2 selectivity in data set [4] is listed as 68.5.

On to `[2H]C([2H])([2H])NC(=O)c1cnc(NC(=O)C2CC2)cc1Nc1cnn2ccc(CC#N)c(OC)c12` [Example 18, 4-((5-(Cyanomethyl)-4-methoxypyrazolo[1,5-a]pyridin-3-yl)amino)-6-(cyclopropanecarboxamido)-N-(methyl-d3)nicotinamide], for which the IC50 in data set [5] was found to be 84.3 nM; in data set [1] it was 1.63 nM; in data set [2] (Mus musculus, BaF3, 72 h), 90.3 nM; in data set [4] it was 0.13 nM. Also, in data set [4], the JAK1/TYK2 selectivity turned out to be 12.5.

For `[2H]C([2H])([2H])NC(=O)c1cnc(NC(=O)C2CC2)cc1Nc1cnn2ccc(CO)c(OC)c12` [Example 22, 6-(Cyclopropanecarboxamido)-4-((5-(hydroxymethyl)-4-methoxypyrazolo[1,5-a]pyridin-3-yl)amino)-N-(methyl-d3)nicotinamide], the IC50 in data set [5] was 80.8 nM; in data set [1], 7.5 nM; in data set [2] (Mus musculus, BaF3, 72 h), 127 nM; in data set [4] it was 0.185 nM. Moreover, in data set [4], the JAK1/TYK2 selectivity came to 40.6. Moreover, the microsomal CLint at 1 µM in data set [6] was found to be 4.5 µL/min/mg. For the same compound, in data set [6], the half-life at 1 µM was 308 min.

Take `[2H]C([2H])([2H])NC(=O)c1nnc(NC(=O)C2CC2)cc1Nc1nn(C)c2ccc([C@H](OC)C(F)(F)F)c(OC)c12` [Example 51B, (S)-6-(cyclopropanecarboxamido)-4-((4-methoxy-1-methyl-5-(2,2,2-trifluoro-1-methoxyethyl)-1H-indazol-3-yl)amino)-N-(methyl-d3)pyridazine-3-carboxamide]: the IC50 worked out at 76.5 nM in data set [5]; 1.27 nM in data set [1]; 0.399 nM in data set [2] (Mus musculus, BaF3, 72 h); 0.171 nM in data set [4]. Also, in data set [4], the JAK1/TYK2 selectivity was 7.43. The microsomal CLint at 1 µM in data set [6] was 8.06 µL/min/mg. Moreover, the half-life at 1 µM in data set [6] worked out at 172 min.

Regarding `CNC(=O)c1nnc(NC(=O)C2CC2)cc1Nc1nc2ccc(N3CC(OC)C3)cn2n1` [Example 188, 6-(Cyclopropanecarboxamido)-4-((6-(3-methoxyazetidin-1-yl)-[1,2,4]triazolo[1,5-a]pyridin-2-yl)amino)-N-methylpyridazine-3-carboxamide, reference compound], the solubility kinetic at 2 h in data set [3] (setting [7]) came out at 1.01 µM (≈ 0.442 µg/mL).

Regarding `[2H]C([2H])([2H])NC(=O)c1cnc(NC(=O)[C@@H]2C[C@@H]2F)cc1Nc1nn(C)c2ccc([C@H](OC([2H])([2H])[2H])C(F)(F)F)c(OC)c12` [Example 192, 6-((1S,2S)-2-Fluorocyclopropane-1-carboxamido)-4-((4-methoxy-1-methyl-5-((S)-2,2,2-trifluoro-1-(methoxy-d3)ethyl)-1H-indazol-3-yl)amino)-N-(methyl-d3)nicotinamide], the IC50 in data set [5] worked out at 24.6 nM; in data set [1], 2.63 nM; in data set [2] (Mus musculus, BaF3, 72 h), 0.088 nM; in data set [4] it was 0.075 nM. Also, the JAK1/TYK2 selectivity in data set [4] amounted to 35.08.

For `[2H]C([2H])([2H])NC(=O)c1nnc(NC(=O)C2CC2)cc1Nc1ncn2cccc2c1OC` [Example 198, 6-(Cyclopropanecarboxamido)-4-((4-methoxypyrrolo[1,2-c]pyrimidin-3-yl)amino)-N-(methyl-d3)pyridazine-3-carboxamide, reference compound], the IC50 came to 1470 nM in data set [5]; 10.4 nM in data set [1]; 260 nM in data set [2] (Mus musculus, BaF3, 72 h); 1.48 nM in data set [4]. Besides, the JAK1/TYK2 selectivity in data set [4] was found to be 7.0.
